Source: paper PMC6259260, “3-Acetyloxy-2-cyano-2-(alkylaminocarbamoyl)propyl Groups as Biodegradable Protecting Groups of Nucleoside 5´-mono-Phosphates” (Molecules, 2011)
Where two headings read alike, the source gives them in different places. Marks after values point to notes of the source that are not given here. Each block holds one molecule with its values, some of them ahead of it.

Columns and labels:
[1] = system: hog liver carboxyesterase (HLE); experiment: Hog liver carboxyesterase (HLE)-catalyzed hydrolysis/deprotection followed by HPLC; type: in vitro ADME; settings: for level of accumulation of the intermediate, of the initial concentration of 1: during HLE (26 units mL^-1) hydrolysis of 1, pH 7.5, 37 °C; for half-life at 0.4 mmol L^-1: hog liver carboxyesterase (HLE)
Method: The subsequent retro-aldol condensation of 14 to diester 4 ([M+H]^+ = 595.3; Reaction C) was, however, so fast that the amount of 14 remained less than 5% of the initial concentration of 1.
(§1) The reactions were carried out in sealed tubes immersed in a thermostated water bath (37.0 ± 0.1 °C). The oxonium ion concentration of the reaction solution (3.5 mL) was adjusted with glycine, 2-[4-(2-hydroxyethyl)piperazin-1-yl)]ethanesulfonic acid (HEPES) and 2-(N-morpholino)ethanesulfonic acid (MES) buffers. The ionic strength of the solutions was adjusted to 0.1 mol L^-1 with sodium chloride. The hydronium ion concentration of the buffer solutions was calculated with the aid of the known pKa values of the buffer acid under the experimental conditions. The initial substrate concentration was ca. 0.4 mmol L^-1.
The enzymatic hydrolysis was carried out with Hog Liver Esterase (26 units mL^-1) in a 2-[4-(2-hydroxyethyl)piperazin-1-yl)]ethanesulfonic acid (HEPES) buffer (0.040/0.024 mol L^-1) at pH 7.5 and 37 °C. The samples (200 μL) withdrawn at appropriate intervals were made acidic (pH 2) with 1 mol L^-1 aqueous hydrogen chloride to inactivate the enzyme and to quench the hydrolysis, cooled in an ice-bath and filtered with minisart RC 4 filters (0.45 μm). The composition of the samples was analyzed on an ODS Hypersil C18 column (4 × 250 mm 5 μm, flow rate 1 mL min^-1), using a mixture of acetic acid/sodium acetate buffer (0.045/0.015 mol L^-1) and MeCN, containing ammonium chloride (0.1 mol L^-1). A good separation of the product mixtures of 2 was obtained on using a 5 min isocratic elution with the buffer containing 2% MeCN, followed by a linear gradient (23 min) up to 40.0% MeCN. Signals were recorded on a UV-detector at a wavelength of 267 nm. The reaction products were identified by the mass spectra (LC/MS) using a mixture of water and acetonitrile containing a formic acid (0.1%) as an eluent (Gemini C18 column (2 × 150 mm 5 μm, flow rate 200 μL min^-1). The first order rate constants for the non-enzymatic hydrolysis of triester 1 were obtained by applying first-order rate-law to the diminution of the concentration of the starting material. The enzymatic deacetylations obeyed first-order kinetics at the high HLE concentrations employed.

[2] = system: hog liver carboxyesterase (HLE); parameters: method as in PMID 19462989; settings: cited from earlier work
[3] = parameters: method as in PMID 19462989; settings: non-enzymatic, cited from earlier work; for half-life for the disappearance: pH 7.5, 25 °C
[4] = Non-enzymatic hydrolysis (hydrolytic stability) in buffer followed by RP HPLC; type: physicochemical; settings: pH 7.5, 37 °C
Method: Hydrolysis of triester 1 was studied at pH 7.5 and 37 °C by analyzing the composition of the aliquots withdrawn from the reaction mixture at appropriate time intervals by RP HPLC. The products formed were identified by spiking with authentic samples and by mass spectrometric analysis (HPLC/ESI-MS). At pH 7.5-10, hydrolysis of the first acetic ester linkages of 1 (Reaction A in Scheme 4) was first-order in hydroxide-ion concentration. […] The subsequent departure of the remnants of this protecting group by retro-aldol condensation gave diester 4 (Route C) without accumulation of the monodeacetylated triester 14 as an intermediate. […]
The reactions were carried out in sealed tubes immersed in a thermostated water bath (37.0 ± 0.1 °C). […] The hydronium ion concentration of the buffer solutions was calculated with the aid of the known pKa values of the buffer acid under the experimental conditions. […]
The enzymatic hydrolysis was carried out with Hog Liver Esterase (26 units mL^-1) in a 2-[4-(2-hydroxyethyl)piperazin-1-yl)]ethanesulfonic acid (HEPES) buffer (0.040/0.024 mol L^-1) at pH 7.5 and 37 °C. […] The composition of the samples was analyzed on an ODS Hypersil C18 column (4 × 250 mm 5 μm, flow rate 1 mL min^-1), using a mixture of acetic acid/sodium acetate buffer (0.045/0.015 mol L^-1) and MeCN, containing ammonium chloride (0.1 mol L^-1). […]

[5] = system: hog liver carboxyesterase (HLE); experiment: HLE-triggered hydrolysis in the presence of glutathione (GSH), followed by HPLC-ESI-MS; type: in vitro ADME; settings: [GSH] = 5.4 mM
Method: The hydrolytic reactions of 1 was also carried out in the presence of glutathione ([GSH] = 5.4 mM) and carboxyesterase ([HLE] = 28.0 units mL^-1) in a 2-(N-morpholino)ethanesulfonic acid (MES) buffer (0.005/0.005 mol L^-1) at pH 6.2 and 37 °C. Under these conditions, the half-live for the deacetylation of 1 was 18 h. In 2 days, the starting material was converted almost quantitatively to a mixture of acetylated and deacetylated phosphodiester 4 and 16 ([4]/[16] is 1:1). At this stage, 2-cyano-N-(2-phenyl)ethylacrylamide (17) was captured as the glutathione conjugate (18; tR = 24.3 min, Route E). Product 18 was detected by both HPLC and LC-MS analysis ([M+H]^+ = 508.8; see Figure 3). In addition, glutathione was converted to its oxidized form glutathione disulfide (GSSG; [M+H]^+ = 613.5 and tR = 9.9 min).
as §1, with “The initial substrate concentration was ca. 0.4 mmol L^-1.” left out

[6] = HLE 26 units mL^-1, pH 7.5, 37 °C
[7] = HLE 26 units mL^-1, pH 7.5, 25 °C

Structure (SMILES): CCOC(=O)C(COC(C)=O)(COP(=O)(OC[C@H]1O[C@@H](n2cc(C)c(=O)[nH]c2=O)C[C@@H]1O)OCC(COC(C)=O)(C(=O)OCC)C(=O)OCC)C(=O)OCC [compound 3, thymidine 5´-bis[3-acetyloxy-2,2-bis(ethoxycarbonyl)propyl]phosphate]
t1/2 Reaction B [2, 7]: 31^a min
t1/2 Reaction C [2, 7]: 31^a min
t1/2 Reaction A [2, 6]: 3.2 min
t1/2 Reaction D [2, 6]: 151 h
half-life for the disappearance [3]: 20 days

Structure (SMILES): C=C(C#N)C(=O)NCCc1ccccc1 [compound 17, 2-cyano-N-(2-phenylethyl)acrylamide]
capture of the electrophilic by-product by glutathione ([5]; [HLE] = 28.0 units mL^-1, pH 6.2, 37 °C, detected as conjugate 18): largely trapped by glutathione

Structure (SMILES): CCOC(=O)C(COCOC(C)=O)(COP(=O)(OC[C@H]1O[C@@H](n2cc(C)c(=O)[nH]c2=O)C[C@@H]1O)OCC(COCOC(C)=O)(C(=O)OCC)C(=O)OCC)C(=O)OCC [compound 2, thymidine 5´-bis[3-acetyloxymethoxy-2,2-bis(ethoxycarbonyl)propyl]phosphate]
t1/2 Reaction A [2, 6]: 0.17 min
t1/2 Reaction B [2, 6]: 0.90 min
t1/2 Reaction C [2, 6]: 10.4 min
t1/2 Reaction D [2, 6]: 3.5 h
half-life, first of the consecutive deacetylations ([3]; pH 7.5, 37 °C): 32 h

Structure (SMILES): CCOC(=O)C(COC(C)=O)(COP(=O)(O)OC[C@H]1O[C@@H](n2cc(C)c(=O)[nH]c2=O)C[C@@H]1O)C(=O)OCC [compound 6]
half-life for the disappearance [3]: 160.4 days

Second part, led by results:

share of deacetylation to 15 (Reaction B) in the total disappearance of 14 [1, 6]: approximately 10%
share of retro-aldol condensation to diester 4 in the overall breakdown of 14 ([1]; HLE, pH 7.5, 37 °C): 90%
level of accumulation of the intermediate, of the initial concentration of 1 [1]: less than 5%
Structure (SMILES): CC(=O)OCC(C#N)(COP(=O)(OCC1OC(n2cc(C)c(=O)[nH]c2=O)CC1O)OCC(C#N)(CO)C(=O)NCCc1ccccc1)C(=O)NCCc1ccccc1 (stereo not shown) [compound 14]

half-life at 0.4 mmol L^-1 ([4]; aqueous buffer (glycine, HEPES or MES buffers), no enzyme, read-out: half-life, hydrolysis of the first acetic ester linkage (Reaction A) (converted)): 28 h
half-life at 0.4 mmol L^-1 ([5]; hog, [HLE] = 28.0 units mL^-1, MES buffer, pH 6.2, 37 °C, read-out: half-life for the deacetylation (converted)): 18 h
conversion to 5´-TMP, times as fast as 3 (comparison of half-lives of Reaction D) ([1]; HLE, pH 7.5, 37 °C): 3 times
half-life at 0.4 mmol L^-1 ([1]; pig, HLE 26 units mL^-1, pH 7.5, 37 °C, I = 0.1 mol L^-1, read-out: t1/2 Reaction A (enzymatic deacetylation of triester, disappearance of starting material)): 0.0633 h
Structure (SMILES): CC(=O)OCC(C#N)(COP(=O)(OCC1OC(n2cc(C)c(=O)[nH]c2=O)CC1O)OCC(C#N)(COC(C)=O)C(=O)NCCc1ccccc1)C(=O)NCCc1ccccc1 (stereo not shown) [compound 1, Thymidine 5´-bis[3-acetyloxy-2-cyano-2-(2-phenylethylcarbamoyl)propyl]phosphate]
first-order rate constant k, hydrolysis of the first acetic ester linkage (Reaction A) [4]: 7e-06 s⁻¹

level of accumulation of the intermediate, of the initial concentration of 1 [1]: below 5%
Structure (SMILES): Cc1cn(C2CC(O)C(COP(=O)(O)OCC(C#N)(CO)C(=O)NCCc3ccccc3)O2)c(=O)[nH]c1=O (stereo not shown) [compound 16]

half-life at 0.4 mmol L^-1 ([1]; hog, HLE 26 units mL^-1, pH 7.5, 37 °C, read-out: half-life for the disappearance (converted)): 47 h
Structure (SMILES): CC(=O)OCC(C#N)(COP(=O)(O)OCC1OC(n2cc(C)c(=O)[nH]c2=O)CC1O)C(=O)NCCc1ccccc1 (stereo not shown) [compound 4]
